According to patent US20240317714A1, “3-[(1H-PYRAZOL-R-YL)OXY]PYRAZIN-2-AMINE COMPOUNDS AS HPK1 INHIBITOR AND USE THEREOF” (BeiGene, Ltd., priority 2020, published 2024):
pIC50: −log10 of the molar value.

Tests used:
[1] = molecular target: HPK1 kinase (aal-346. Life Technologies) (Homo sapiens (Human), UniProt Q92918); assay: HPK Kinase Activity Assay at 1 mM ATP (TR-FRET); type: biochemical; details: HPK1 kinase 40 nM, 0.5 μM STK1 substrate, read-out: Enzymatic activity IC50
[2] = test system: pSLP76(S376) level in Jurkat cell line; assay: Cellular pSLP76(S376) HTRF Assay; type: cell-based; details: Jurkat cells, 2 h compound treatment, stimulated with 0.05 μg/mL anti-human CD3 (OKT3) for 30 min

HPK1 kinase (aal-346. Life Technologies), sequence (Q92918 1-346): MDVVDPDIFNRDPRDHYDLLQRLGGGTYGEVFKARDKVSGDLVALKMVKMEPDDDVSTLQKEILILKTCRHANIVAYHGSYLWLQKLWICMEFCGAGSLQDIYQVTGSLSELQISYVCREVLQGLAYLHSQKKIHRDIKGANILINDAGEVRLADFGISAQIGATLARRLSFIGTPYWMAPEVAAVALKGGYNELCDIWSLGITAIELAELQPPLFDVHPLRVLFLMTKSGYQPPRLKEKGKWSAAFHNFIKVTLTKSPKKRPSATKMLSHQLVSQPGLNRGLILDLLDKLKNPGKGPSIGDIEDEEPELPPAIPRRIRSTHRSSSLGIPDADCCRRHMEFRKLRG

Compound | pIC50 [1] | pIC50 ([2]; Homo sapiens, Jurkat) | pIC50 [2]
Cc1cc(-c2cnc(N)c(Oc3cnn(C4CCN(C)CC4)c3)n2)cc([C@@]2(O)CCOC2)c1 (single isomer, unassigned) [Example A74A] | 7.34 |  | 7.07
C[C@@H]1COCCN1c1cc(-c2cnc(N)c(Oc3cnn(C4CCN(C)CC4)c3)n2)cc(C2(O)CCCOC2)c1 (single isomer, unassigned) [Example A90A] | 7.09 |  | 
Cc1cc(-c2cnc(N)c(Oc3cnn(C4CCN(C)CC4)c3)n2)cc(C)c1C(=O)NCCN(C)C [Example A1, 4-(5-amino-6-((1-(1-methylpiperidin-4-yl)-1H-pyrazol-4-yl)oxy)pyrazin-2-yl)-N-(2-(dimethylamino)ethyl)-2,6-dimethylbenzamide] | 7.33 | 7.03 | 
CNC(=O)c1c(C)cc(-c2cnc(N)c(Oc3cnn(C4CCN(C)CC4)c3)n2)cc1C [Example A3, 4-(5-amino-6-(1-(1-methylpiperidin-4-yl)-1H-pyrazol-4-yloxy)pyrazin-2-yl)-N,2,6-trimethylbenzamide] | 6.96 | 6.82 | 
Cc1cc(-c2cnc(N)c(Oc3cnn(C4CCN(C)CC4)c3)n2)cc(S(=O)(=O)NCCN2CCCCC2)c1 [Example A9, 3-(5-amino-6-((1-(1-methylpiperidin-4-yl)-1H-pyrazol-4-yl)oxy)pyrazin-2-yl)-5-methyl-N-(2-(piperidin-1-yl)ethyl)benzenesulfonamide] | 7.34 | 7.00 | 
Cc1cc(-c2cnc(N)c(Oc3cnn(C4CCN(C)CC4)c3)n2)cc(S(=O)(=O)NCCC#N)c1 [Example A10, 3-(5-amino-6-((1-(1-methylpiperidin-4-yl)-1H-pyrazol-4-yl)oxy)pyrazin-2-yl)-N-(2-cyanoethyl)-5-methylbenzenesulfonamide] | 7.36 | 6.93 | 
Cc1cc(CCNS(C)(=O)=O)cc(-c2cnc(N)c(Oc3cnn(C4CCN(C)CC4)c3)n2)c1 [Example A12, N-(3-(5-amino-6-((1-(1-methylpiperidin-4-yl)-1H-pyrazol-4-yl)oxy)pyrazin-2-yl)-5-methylphenethyl)methanesulfonamide] | 6.90 | 6.92 | 
CNS(=O)(=O)c1cc(C)cc(-c2cnc(N)c(Oc3cnn(C4CCNCC4)c3)n2)c1 [Example A13, 3-(5-amino-6-((1-(piperidin-4-yl)-1H-pyrazol-4-yl)oxy)pyrazin-2-yl)-N,5-dimethylbenzenesulfonamide] | 6.86 | 6.92 | 
CNS(=O)(=O)c1cc(C)cc(-c2cnc(N)c(Oc3cnn([C@@H]4C[C@H]5CC[C@@H](C4)N5C)c3)n2)c1 [Example A14, 3-(5-amino-6-((1-((1R,3s,5S)-8-methyl-8-azabicyclo[3.2.1]octan-3-yl)-1H-pyrazol-4-yl)oxy)pyrazin-2-yl)-N,5-dimethylbenzenesulfonamide] | 7.35 | 7.23 | 
CCNS(=O)(=O)c1cc(C)cc(-c2cnc(N)c(Oc3cnn(C4CCN(C)CC4)c3)n2)c1 [Example A15, 3-(5-amino-6-((1-(1-methylpiperidin-4-yl)-1H-pyrazol-4-yl)oxy)pyrazin-2-yl)-N-ethyl-5-methylbenzenesulfonamide] | 7.08 | 6.80 | 
Cc1cc(-c2cnc(N)c(Oc3cnn(C4CCN(C)CC4)c3)n2)cc(C(=O)NCCN(C)C)c1C [Example A17, 5-(5-amino-6-((1-(1-methylpiperidin-4-yl)-1H-pyrazol-4-yl)oxy)pyrazin-2-yl)-N-(2-(dimethylamino)ethyl)-2,3-dimethylbenzamide] | 7.23 | 6.71 | 
CNS(=O)(=O)c1cc(-c2cnc(N)c(Oc3cnn(C4CCN(C)CC4)c3)n2)cc(F)c1C [Example A18, 5-(5-amino-6-((1-(1-methylpiperidin-4-yl)-1H-pyrazol-4-yl)oxy)pyrazin-2-yl)-3-fluoro-N,2-dimethylbenzenesulfonamide] | 7.00 | 7.33 | 
Cc1cc(-c2cnc(N)c(Oc3cnn(C4CCN(C)CC4)c3)n2)cc(C)c1CNS(C)(=O)=O [Example A19, N-(4-(5-amino-6-((1-(1-methylpiperidin-4-yl)-1H-pyrazol-4-yl)oxy)pyrazin-2-yl)-2,6-dimethylbenzyl)methanesulfonamide] | 7.36 | 7.34 | 
Cc1cc(-c2cnc(N)c(Oc3cnn(C4CCN(C)CC4)c3)n2)cc(C2(NS(=O)(=O)c3ccccc3)CC2)c1 [Example A20, N-(1-(3-(5-amino-6-((1-(1-methylpiperidin-4-yl)-1H-pyrazol-4-yl)oxy)pyrazin-2-yl)-5-methylphenyl)cyclopropyl)benzenesulfonamide] | 7.15 | 7.01 | 
CONC(=O)c1c(C)cc(-c2cnc(N)c(Oc3cnn(C4CCN(C)CC4)c3)n2)cc1C [Example A21, 4-(5-amino-6-((1-(1-methylpiperidin-4-yl)-1H-pyrazol-4-yl)oxy)pyrazin-2-yl)-N-methoxy-2,6-dimethylbenzamide] | 6.98 | 6.73 | 
CNS(=O)(=O)c1cc(C)cc(-c2cnc(N)c(Oc3cnn(C4CCN(C5CC5)CC4)c3)n2)c1 [Example A24, 3-(5-amino-6-((1-(1-cyclopropylpiperidin-4-yl)-1H-pyrazol-4-yl)oxy)pyrazin-2-yl)-N,5-dimethylbenzenesulfonamide] | 6.98 | 6.76 | 
Cc1cc(-c2cnc(N)c(Oc3cnn(C4CCN(C)CC4)c3)n2)cc([C@H]2CCC(=O)N2)c1 [Example A61A, (R)-5-(3-(5-amino-6-((1-(1-methylpiperidin-4-yl)-1H-pyrazol-4-yl)oxy)pyrazin-2-yl)-5-methylphenyl)pyrrolidin-2-one] | 6.60 |  | 

More lines, main results first:

pIC50 [1] | pIC50 ([2]; Homo sapiens, Jurkat) | Compound | pIC50 [2]
8.15 | 7.00 | C[C@@H]1COCCN1c1cc(-c2cnc(N)c(Oc3cnn(C4CCN(C)CC4)c3)n2)cc(C2(O)CCCOC2)c1 (single isomer, unassigned) [Example A90B] | 
7.36 | 6.91 | CC1OCCC1(O)c1cc(-c2cnc(N)c(Oc3cnn(C4CCN(C)CC4)c3)n2)cc(N2CCOC[C@H]2C)c1 (single isomer, unassigned) [Example A95A] | 
8.35 |  | CC1OCCC1(O)c1cc(-c2cnc(N)c(Oc3cnn(C4CCN(C)CC4)c3)n2)cc(N2CCOC[C@H]2C)c1 (single isomer, unassigned) [Example A95B] | 
7.85 | 7.47 | CNS(=O)(=O)c1cc(C)cc(-c2cnc(N)c(Oc3cnn(C4CCN(C)CC4)c3)n2)c1 [Example A2, 3-(5-amino-6-((1-(1-methylpiperidin-4-yl)-1H-pyrazol-4-yl)oxy)pyrazin-2-yl)-N,5-dimethylbenzenesulfonamide] | 
7.60 | 7.04 | Cc1cc(-c2cnc(N)c(Oc3cnn(C4CCN(C)CC4)c3)n2)cc(C)c1C(=O)NCCN1CCCC1 [Example A4, 4-(5-amino-6-((1-(1-methylpiperidin-4-yl)-1H-pyrazol-4-yl)oxy)pyrazin-2-yl)-2,6-dimethyl-N-(2-(pyrrolidin-1-yl)ethyl)benzamide] | 
7.46 | 7.15 | Cc1cc(-c2cnc(N)c(Oc3cnn(C4CCN(C)CC4)c3)n2)cc(C)c1C(=O)NCCN1CCCCC1 [Example A5, 4-(5-amino-6-(1-(1-methylpiperidin-4-yl)-1H-pyrazol-4-yloxy)pyrazin-2-yl)-2,6-dimethyl-N-(2-(piperidin-1-yl)ethyl)benzamide] | 
7.36 | 7.46 | Cc1cc(-c2cnc(N)c(Oc3cnn(C4CCN(C)CC4)c3)n2)cc(S(N)(=O)=O)c1 [Example A6, 3-(5-amino-6-((1-(1-methylpiperidin-4-yl)-1H-pyrazol-4-yl)oxy)pyrazin-2-yl)-5-methylbenzenesulfonamide] | 
7.70 | 7.21 | CNS(=O)(=O)c1cc(OC)cc(-c2cnc(N)c(Oc3cnn(C4CCN(C)CC4)c3)n2)c1 [Example A7, 3-(5-amino-6-((1-(1-methylpiperidin-4-yl)-1H-pyrazol-4-yl)oxy)pyrazin-2-yl)-5-methoxy-N-methylbenzenesulfonamide] | 
8.10 | 7.52 | CNS(=O)(=O)c1cc(-c2cnc(N)c(Oc3cnn(C4CCN(C)CC4)c3)n2)cc(C)c1C [Example A8, 5-(5-amino-6-((1-(1-methylpiperidin-4-yl)-1H-pyrazol-4-yl)oxy)pyrazin-2-yl)-N,2,3-trimethylbenzemesulfonamide] | 
8.05 | 7.27 | Cc1cc(-c2cnc(N)c(Oc3cnn(C4CCN(C)CC4)c3)n2)cc(C2(NS(C)(=O)=O)CC2)c1 [Example A11, N-(1-(3-(5-amino-6-((1-(1-methylpiperidin-4-yl)-1H-pyrazol-4-yl)oxy)pyrazin-2-yl)-5-methylphenyl)cyclopropyl)methanesulfonamide] | 
7.74 | 7.10 | CNS(=O)(=O)c1cc(OC(C)C)cc(-c2cnc(N)c(Oc3cnn(C4CCN(C)CC4)c3)n2)c1 [Example A16, 3-(5-amino-6-((1-(1-methylpiperidin-4-yl)-1H-pyrazol-4-yl)oxy)pyrazin-2-yl)-5-isopropoxy-N-methylbenzenesulfonamide; formic acid] | 
7.85 | 7.42 | CNc1cc(-c2cnc(N)c(Oc3cnn(C4CCN(C)CC4)c3)n2)cc(S(=O)(=O)NC)c1 [Example A22, 3-(5-amino-6-((1-(1-methylpiperidin-4-yl)-1H-pyrazol-4-yl)oxy)pyrazin-2-yl)-N-methyl-5-(methylamino)benzenesulfonamide] | 
8.22 | 7.46 | CNS(=O)(=O)c1cc(-c2cnc(N)c(Oc3cnn(C4CCN(C)CC4)c3)n2)cc(N2CCCC2)c1 [Example A23, 3-(5-amino-6-((1-(1-methylpiperidin-4-yl)-1H-pyrazol-4-yl)oxy)pyrazin-2-yl)-N-methyl-5-(pyrrolidin-1-yl)benzenesulfonamide] | 
